Source: patent US8927033B2, “Hyperlipemia-ameliorating agent, anemia-ameliorating composition, uric-acid-level-reducing composition, and food or beverage” (Lion Corporation, priority 2009, dated 2015)

Test system: Type 2-diabetes model mice KK-Ay/Ta Jc1
Test: Study on hyperlipemia-ameliorating effects (plasma neutral fat, total cholesterol, free fatty acid, visceral fat, body weight)
Type: in vivo
Conditions: for Body weight (average g/±SD) / Neutral fat level (average mg/dL ± SD) / Free fatty acid level (average mEq/L ± SD) / Total cholesterol level (average mg/dL ± SD) / Visceral fat level (average g ± SD): 0.05% by mass in feed CE2, 5 days; for Body weight (average g/±SD) / Neutral fat level (average mg/dL ± SD): overnight fast; for Body weight (average g/±SD): control group 52.3 ± 4.2; for cholesterol level-regulating effect compared with the control group / free fatty acid level-regulating effect compared with the control group / reduction in body weight compared with the control group / reduction in the visceral fat level compared with the control group / neutral fat level-regulating effect compared with the control group: in words, 0.05% (aglycons) or 1.0% by mass (products) in feed, 5 days; for neutral fat level-regulating effect compared with the control group: Dunnett's test; for Neutral fat level (average mg/dL ± SD) / Free fatty acid level (average mEq/L ± SD) / Total cholesterol level (average mg/dL ± SD): plasma; for Neutral fat level (average mg/dL ± SD): control group 407.3 ± 20.9; for Free fatty acid level (average mEq/L ± SD): control group 1.95 ± 0.3; for Total cholesterol level (average mg/dL ± SD): control group 195.5 ± 10.7; for Visceral fat level (average g ± SD): retroperitoneal + epididymal + perirenal fat, control group 8.2 ± 1.0
Description: Protopanaxatriol (PPT) (product of Funakoshi Corporation), panaxatriol (PT) (product of Funakoshi Corporation), protopanaxadiol (PPD) (product of Funakoshi Corporation) and panaxadiol (PD) (product of Funakoshi Corporation) were each added to feed CE2 (product of CLEA Japan, Inc.) so that the concentration thereof was 0.05% by mass.
Similarly, the strong acid-treated Panax notoginseng product (Production Example 1) and Panax notoginseng powder (product of MATSUURA YAKUGYO CO., LTD.) were each added to feed CE2 (product of CLEA Japan, Inc.) so that the concentration thereof was 1.0% by mass.
Feed CE2 (product of CLEA Japan, Inc.) containing no other additives was used as feed for the control group.
Type 2-diabetes model mice KK-Ay/Ta Jc1 (male, 4 weeks old, 8 mice/group, product of CLEA Japan, Inc.) were preliminarily bred for 7 days. Thereafter, they were bred for 5 days with the above-prepared feed CE2, containing no other additives or containing PPT, PT, PPD, PD, the strong acid-treated Panax notoginseng product or Panax notoginseng powder.
The mice bred for 5 days in the above-described manner were measured for the body weight after an overnight fast. The blood was collected from them. The collected blood sample was used to measure the plasma neutral-fat level with […] (product of Wako Pure Chemical Industries, Ltd.), the plasma total-cholesterol level with CHOLESTEROL E-TEST WAKO (product of Wako Pure Chemical Industries, Ltd.) and the plasma free-fatty-acid level with […] (product of Wako Pure Chemical Industries, Ltd.). In addition, retroperitoneal fat, fat surrounding the epididymis, and fat surrounding the kidney were sampled and weighed. The total mass thereof was used as the visceral fat level. The above-measured plasma neutral-fat level, plasma total-cholesterol level, plasma free-fatty-acid level, visceral fat level and body weight were verified using the Dunnett's multiple test. A p value of 0.05 or lower was considered statistically significant.

Row | Compound | Body weight (average g/±SD) | cholesterol level-regulating effect compared with the control group | free fatty acid level-regulating effect compared with the control group | reduction in body weight compared with the control group | reduction in the visceral fat level compared with the control group | neutral fat level-regulating effect compared with the control group | Neutral fat level (average mg/dL ± SD) | Free fatty acid level (average mEq/L ± SD) | Total cholesterol level (average mg/dL ± SD) | Visceral fat level (average g ± SD)
1 | CC(C)=CCCC(C)(O)[C@H]1CC[C@]2(C)[C@@H]1[C@H](O)C[C@@H]1[C@@]3(C)CC[C@H](O)C(C)(C)[C@@H]3CC[C@]12C (stereo in doubt) [PPD, protopanaxadiol] | 46.8 ± 2.6 g | significantly superior to that of the control group | significantly superior to that of the control group | significant reduction in body weight | significant reduction in the visceral fat level | significantly superior to that of the control group | 151.4 ± 26.9 mg/dL | 0.81 ± 0.08 mEq/L | 123.2 ± 19.6 mg/dL | 5.9 ± 1.3 g
2 | CC1(C)CCC[C@](C)([C@H]2CC[C@]3(C)[C@@H]2[C@H](O)C[C@@H]2[C@@]4(C)CC[C@H](O)C(C)(C)[C@@H]4CC[C@]23C)O1 [PD, panaxadiol] | 47.3 ± 1.9 g | significantly superior to that of the control group | significantly superior to that of the control group | significant reduction in body weight | significant reduction in the visceral fat level | significantly superior to that of the control group | 180.7 ± 34.2 mg/dL | 1.04 ± 0.12 mEq/L | 101.5 ± 15.6 mg/dL | 5.5 ± 1.6 g
3 | CC(C)=CCC[C@](C)(O)[C@H]1CC[C@]2(C)[C@@H]1[C@H](O)C[C@@H]1[C@@]3(C)CC[C@H](O)C(C)(C)[C@@H]3[C@@H](O)C[C@]12C [PPT, Protopanaxatriol] | 45.3 ± 2.2 g | significantly superior to that of the control group | significantly superior to that of the control group | significant reduction in body weight | significant reduction in the visceral fat level | significantly superior to that of the control group | 138.5 ± 25.3 mg/dL | 0.93 ± 0.08 mEq/L | 128.3 ± 17.8 mg/dL | 5.5 ± 1.3 g
4 | CC1(C)CCC[C@](C)([C@H]2CC[C@]3(C)[C@@H]2[C@H](O)C[C@@H]2[C@@]4(C)CC[C@H](O)C(C)(C)[C@@H]4[C@@H](O)C[C@]23C)O1 [PT, panaxatriol] | 43.9 ± 2.8 g | significantly superior to that of the control group | significantly superior to that of the control group | significant reduction in body weight | significant reduction in the visceral fat level | significantly superior to that of the control group | 163 ± 32.8 mg/dL | 0.84 ± 0.07 mEq/L | 102.9 ± 16.7 mg/dL | –
